The values that follow come from PMC2374293, “The equilibrium and kinetic drug binding properties of the mouse P-gp1a and P-gp1b P-glycoproteins are similar” (British Journal of Cancer, 1999).

pKd, pKi: −log10 of the molar value.

In assay [1] the target is P-gp. As to the kind of experiment: Sensitivity of [3H]vinblastine binding to DMSO. Set-up: species or system mouse. The source says:
(§1) The two murine proteins share 84% amino acid identity, although the linker region which contains several sites for phosphorylation by protein kinase C (PKC) is the least conserved region between the two isoforms (Devault and Gros, 1990). […] P-gp1a is expressed at high levels in the intestine, liver and testis, and also in the lung and brain where it is thought to contribute to the blood-brain barrier (Schinkel et al, 1994). In contrast, P-gp1b is expressed in tissues associated with steroid biosynthesis and distribution, such as the adrenal gland and ovary, and is induced specifically in the uterus during pregnancy (Arceci et al, 1988; Trezise et al, 1992). The steroid hormone progesterone increases during pregnancy, and the mdr1b gene, but not the mdr1a gene, is regulated by a progesterone response element in its promoter (Piekarz et al, 1993). Direct evidence that the P-gp1b isoform can transport steroids comes from the observation that disruption of the mdr1b gene in mouse adrenal cells is associated with decreased adrenocorticotropic hormone-stimulated steroid secre- tion (Altuvia et al, 1993). […] More specifically, progesterone inhibits vinblastine binding and azidopine photolabelling of both of the mouse P-gp isoforms in vitro (Yang et al, 1990), showing that both isoforms are capable of interacting with steroids. […]

Assay [2] deals with Drug-resistant lines (LR73-1a, LR73-1b). The experiment in a line: Maximal vinblastine resistance level of drug-resistant lines in culture. The note with it: Cricetulus griseus, read-out: EC50, maximal resistance level of the cells. The format is cell-based, Chinese hamster.
From the text: as §1

Assay [3] deals with drug-sensitive cells (LR73). As to the kind of experiment: Vinblastine sensitivity of drug-sensitive cells in culture. The format is cell-based, Chinese hamster. The note with it: Cricetulus griseus.
From the text: as §1

For assay [4], the system named is P-gp. As to the kind of experiment: Binding of [3H]progesterone to P-gp. The note with it: data not shown. Set-up: species or system mouse.
From the text: as §1

The target of assay [5] is T1, P-gp1b (Mus musculus, UniProt P06795).
T1 construct: expressed in transfected cells; host or cells: Chinese hamster ovary LR73 cells (LR73-1b), plasma membrane fraction
T1 sequence (P06795 whole entry): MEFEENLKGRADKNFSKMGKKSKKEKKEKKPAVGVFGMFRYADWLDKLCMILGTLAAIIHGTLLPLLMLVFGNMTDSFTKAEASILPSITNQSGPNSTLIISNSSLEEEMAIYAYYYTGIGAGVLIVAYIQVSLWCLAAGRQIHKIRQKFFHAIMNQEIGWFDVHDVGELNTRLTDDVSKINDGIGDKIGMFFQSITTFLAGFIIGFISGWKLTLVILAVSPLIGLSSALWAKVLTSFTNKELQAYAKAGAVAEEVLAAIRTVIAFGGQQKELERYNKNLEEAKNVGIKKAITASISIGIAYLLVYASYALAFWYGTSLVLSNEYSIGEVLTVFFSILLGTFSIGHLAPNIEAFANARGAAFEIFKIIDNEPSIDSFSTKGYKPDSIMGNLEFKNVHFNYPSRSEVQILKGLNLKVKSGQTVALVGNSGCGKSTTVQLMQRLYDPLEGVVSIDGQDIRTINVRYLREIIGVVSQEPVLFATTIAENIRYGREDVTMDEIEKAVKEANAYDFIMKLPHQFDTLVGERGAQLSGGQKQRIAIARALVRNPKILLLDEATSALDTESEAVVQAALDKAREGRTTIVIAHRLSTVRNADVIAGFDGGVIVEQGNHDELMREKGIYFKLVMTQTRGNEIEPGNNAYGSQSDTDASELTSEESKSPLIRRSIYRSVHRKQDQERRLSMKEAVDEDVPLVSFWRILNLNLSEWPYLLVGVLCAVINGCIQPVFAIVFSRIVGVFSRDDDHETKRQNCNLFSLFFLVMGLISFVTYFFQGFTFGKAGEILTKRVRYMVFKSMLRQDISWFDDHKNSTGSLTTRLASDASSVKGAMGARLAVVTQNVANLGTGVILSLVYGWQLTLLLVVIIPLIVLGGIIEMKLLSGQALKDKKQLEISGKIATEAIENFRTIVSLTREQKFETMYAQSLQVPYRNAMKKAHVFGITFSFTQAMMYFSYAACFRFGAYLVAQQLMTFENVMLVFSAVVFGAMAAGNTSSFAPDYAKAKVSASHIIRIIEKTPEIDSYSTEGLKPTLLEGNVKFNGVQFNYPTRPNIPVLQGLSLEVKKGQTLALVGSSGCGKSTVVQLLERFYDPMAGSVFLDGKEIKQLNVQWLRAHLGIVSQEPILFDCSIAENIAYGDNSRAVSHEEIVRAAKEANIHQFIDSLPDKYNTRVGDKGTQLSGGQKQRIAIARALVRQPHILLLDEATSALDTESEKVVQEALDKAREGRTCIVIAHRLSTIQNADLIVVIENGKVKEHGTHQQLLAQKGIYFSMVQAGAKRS
The experiment in a line: Equilibrium (saturation) binding of [3H]vinblastine to LR73-1b plasma membranes, rapid filtration. The source says: (§2) The two murine proteins share 84% amino acid identity, although the linker region which contains several sites for phosphorylation by protein kinase C (PKC) is the least conserved region between the two isoforms (Devault and Gros, 1990). […] P-gp1a is expressed at high levels in the intestine, liver and testis, and also in the lung and brain where it is thought to contribute to the blood-brain barrier (Schinkel et al, 1994). In contrast, P-gp1b is expressed in tissues associated with steroid biosynthesis and distribution, such as the adrenal gland and ovary, and is induced specifically in the uterus during pregnancy (Arceci et al, 1988; Trezise et al, 1992). The steroid hormone progesterone increases during pregnancy, and the mdr1b gene, but not the mdr1a gene, is regulated by a progesterone response element in its promoter (Piekarz et al, 1993). Direct evidence that the P-gp1b isoform can transport steroids comes from the observation that disruption of the mdr1b gene in mouse adrenal cells is associated with decreased adrenocorticotropic hormone-stimulated steroid secre- tion (Altuvia et al, 1993). […] More specifically, progesterone inhibits vinblastine binding and azidopine photolabelling of both of the mouse P-gp isoforms in vitro (Yang et al, 1990), showing that both isoforms are capable of interacting with steroids. However, if the distinct tissue-specific patterns of expression of P-gp1a and P-gp1b reflect differences in function related to steroid transport, it is important to show directly that the two proteins are functionally distinct. […] Summary The gene encoding the multidrug resistance P-glycoprotein (P-gp) is duplicated in rodent species and the functional basis for this remains unresolved. […] In the present study possible biochemical differences between the isoforms were directly investigated at the level of drug interaction. […]

The target of assay [6] is T2, P-gp1a (Mus musculus, UniProt P21447).
T2 construct: expressed in transfected cells; host or cells: Chinese hamster ovary LR73 cells (LR73-1a), plasma membrane fraction
T2 sequence (P21447 whole entry): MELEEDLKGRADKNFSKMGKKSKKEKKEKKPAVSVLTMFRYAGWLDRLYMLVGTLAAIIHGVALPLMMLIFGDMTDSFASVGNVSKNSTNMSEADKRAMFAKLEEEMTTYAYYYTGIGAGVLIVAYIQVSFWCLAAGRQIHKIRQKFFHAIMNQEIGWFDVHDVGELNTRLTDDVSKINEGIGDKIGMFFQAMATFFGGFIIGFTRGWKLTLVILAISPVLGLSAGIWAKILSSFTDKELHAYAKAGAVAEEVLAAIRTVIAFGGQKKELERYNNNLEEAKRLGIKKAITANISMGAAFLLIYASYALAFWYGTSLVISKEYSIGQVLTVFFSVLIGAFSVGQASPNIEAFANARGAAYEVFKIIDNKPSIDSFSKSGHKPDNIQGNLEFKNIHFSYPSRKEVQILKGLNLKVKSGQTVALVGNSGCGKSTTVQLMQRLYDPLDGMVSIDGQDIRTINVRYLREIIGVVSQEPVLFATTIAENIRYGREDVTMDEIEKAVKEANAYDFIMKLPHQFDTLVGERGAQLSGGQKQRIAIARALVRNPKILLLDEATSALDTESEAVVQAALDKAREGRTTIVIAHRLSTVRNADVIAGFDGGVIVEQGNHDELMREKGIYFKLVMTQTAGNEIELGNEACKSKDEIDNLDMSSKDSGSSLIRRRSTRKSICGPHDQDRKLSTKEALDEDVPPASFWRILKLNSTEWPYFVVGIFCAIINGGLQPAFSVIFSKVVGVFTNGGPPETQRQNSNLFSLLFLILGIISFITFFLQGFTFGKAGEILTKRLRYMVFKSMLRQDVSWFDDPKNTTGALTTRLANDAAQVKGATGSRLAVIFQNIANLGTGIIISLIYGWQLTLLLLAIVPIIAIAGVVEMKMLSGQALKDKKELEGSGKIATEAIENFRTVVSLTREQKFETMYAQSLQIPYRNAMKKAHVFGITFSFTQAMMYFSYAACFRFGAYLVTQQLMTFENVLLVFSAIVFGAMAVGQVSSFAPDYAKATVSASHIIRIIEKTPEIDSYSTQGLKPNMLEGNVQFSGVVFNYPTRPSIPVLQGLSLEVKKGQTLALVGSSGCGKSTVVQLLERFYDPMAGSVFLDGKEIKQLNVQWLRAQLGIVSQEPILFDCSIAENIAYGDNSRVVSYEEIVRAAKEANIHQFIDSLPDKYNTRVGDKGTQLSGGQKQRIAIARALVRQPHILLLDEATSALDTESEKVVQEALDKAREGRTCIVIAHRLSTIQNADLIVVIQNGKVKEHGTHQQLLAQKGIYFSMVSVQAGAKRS
The experiment in a line: Association kinetics of [3H]vinblastine binding to LR73-1a membranes.
From the text: as §2

The target in assay [7] is T1, P-gp1b. As to the kind of experiment: Association kinetics of [3H]vinblastine binding to LR73-1b membranes.
From the text: as §2

Assay [8] deals with T2, P-gp1a. As to the kind of experiment: Equilibrium (saturation) binding of [3H]vinblastine to LR73-1a plasma membranes, rapid filtration. The conditions noted are these: LR73-1a membranes, mean s.e.m.
From the text: as §1

A short description of assay [9]: [3H]vinblastine binding to LR73 membranes that do not express P-gp. Set-up: species or system Chinese hamster. The note with it: data not shown.
From the text: as §1

The target in assay [10] is T1, P-gp1b. The experiment in a line: Displacement of equilibrium [3H]vinblastine binding, LR73-1b membranes.
From the text: as §1

Assay [11] has as its target T2, P-gp1a. The experiment in a line: Displacement of equilibrium [3H]vinblastine binding, LR73-1a membranes.
From the text: as §1

With `C[S+](C)[O-]` [DMSO, dimethylsulphoxide], on P-gp [1], the “EC50 on [3H]vinblastine binding” value is 2.5 % (v/v).

`CC[C@]1(O)C[C@@H]2CN(CCc3c([nH]c4ccccc34)[C@@](C(=O)OC)(c3cc4c(cc3OC)N(C)[C@H]3[C@@](O)(C(=O)OC)[C@H](OC(C)=O)[C@]5(CC)C=CCN6CC[C@]43[C@@H]65)C2)C1` [vinblastine sulphate, Vinblastine sulphate]: the EC50 in assay [2] is 0.2 to 0.25 µg/mL; in [3], 0.01 µg/mL.

On to `CC(=O)[C@H]1CC[C@H]2[C@@H]3CCC4=CC(=O)CC[C@]4(C)[C@H]3CC[C@]12C` [[3H]progesterone], for which the “binding characteristics to P-gp” value in the assay with P-gp [4] is given as “poor affinity, low specific binding”.

As to `CC[C@]1(O)C[C@@H]2CN(CCc3c([nH]c4ccccc34)[C@@](C(=O)OC)(c3cc4c(cc3OC)N(C)[C@H]3[C@@](O)(C(=O)OC)[C@H](OC(C)=O)[C@]5(CC)C=CCN6CC[C@]43[C@@H]65)C2)C1` [[3H]vinblastine], the Bmax at P-gp1b [5] (Figure 2, single representative experiment) is listed as 8.6 1.4 pmol mg-1. In addition, the pKd at P-gp1b [5] (LR73-1b membranes, equilibrium, mean s.e.m., read-out: Kd, affinity of [3H]vinblastine binding) was 7.51; at P-gp1a [6] (P-gp1a, read-out: Estimate of dissociation constant (Kd = k-1/k+1) using the kinetic data), 7.46; on P-gp1b [7] (P-gp1b, read-out: Estimate of dissociation constant (Kd = k-1/k+1) using the kinetic data), 7.26; on P-gp1a [8] (equilibrium, read-out: Kd, affinity of [3H]vinblastine binding), 7.48. The “Bmax, density of specific binding sites” value at P-gp1b [5] (LR73-1b membranes, mean s.e.m.) is 14.1 2.9 pmol mg-1; on P-gp1a [8] it was 24.5 2.9 pmol mg-1. Besides, the “association rate constant (k+1)” value at P-gp1a [6] (LR73-1a membranes, 15-20 nM [3H]vinblastine) was 0.002 0.0005 min-1 nM-1; at P-gp1b [7] (LR73-1b membranes, 15-20 nM [3H]vinblastine), 0.002 0.0006 min-1 nM-1. Besides, the “rate constant of [3H]vinblastine dissociation (k-1)” value is 0.07 0.02 min-1 at P-gp1a [6] (LR73-1a membranes, derived from Figure 3) and 0.11 0.02 min-1 at P-gp1b [7] (LR73-1b membranes, derived from Figure 3). In addition, the specific binding result in assay [9] is “did not bind specifically”.

Take `CC(=O)[C@H]1CC[C@H]2[C@@H]3CCC4=CC(=O)CC[C@]4(C)[C@H]3CC[C@]12C` [progesterone]: the pKi at P-gp1b [10] is 5.74; on P-gp1a [11], 5.72.
